From US20180002366A1, “4'-SUBSTITUTED NUCLEOSIDE REVERSE TRANSCRIPTASE INHIBITORS” (MERCK SHARP & DOHME CORP., priority 2014, published 2018)

Tests used:
[1] = target: T1, adenosine deaminase (ADA) type 1 (Homo sapiens, UniProt P00813); experiment: Adenosine Deaminase (ADA) Half-Life; format: in vitro ADME; details: human, human adenosine deaminase (ADA) type 1 in Tris-HCl buffer; time for 50% conversion to inosine product; Tris-HCl buffer pH 7.5, 40° C., LCMS
T1 sequence (P00813 1-363): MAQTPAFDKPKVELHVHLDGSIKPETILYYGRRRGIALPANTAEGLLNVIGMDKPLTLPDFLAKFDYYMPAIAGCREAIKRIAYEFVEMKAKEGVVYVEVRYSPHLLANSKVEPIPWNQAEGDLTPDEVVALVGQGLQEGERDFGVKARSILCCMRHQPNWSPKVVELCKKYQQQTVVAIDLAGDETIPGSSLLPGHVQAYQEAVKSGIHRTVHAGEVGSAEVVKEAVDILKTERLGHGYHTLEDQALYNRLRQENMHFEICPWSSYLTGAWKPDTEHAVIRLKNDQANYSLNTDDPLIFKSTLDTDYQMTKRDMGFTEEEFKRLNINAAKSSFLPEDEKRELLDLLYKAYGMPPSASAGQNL
Experimental: (§1) The data in Table 5 was generated by reacting a substrate compound with human ADA type 1 in the presence of Tris-HCl buffer (pH 7.5) at 40° C. and monitoring by LCMS for consumption of starting material. The time necessary for 50% conversion to the corresponding inosine product is noted as the T1/2 in Table 5. It is known that deamination by adenosine deaminase decreases the therapeutic potential of adenosine-like nucleoside inhibitors especially in vivo (see references below). […] It is possible that compounds that are more resistant to ADA will have better pharmacokinetic properties.
(§2) Tris-HCl buffer (pH 7.5, 5 mL) was injected into a 25-mL round-bottom flask. The mixture was heated to reflux for 30 minutes. Then the mixture was cooled to 30° C. and (2R,3S,5R)-5-(4-amino-5-fluoro-7H-pyrrolo[2,3-d]pyrimidin-7-yl)-2-ethynyl-2-(hydroxymethyl)tetrahydrofuran-3-ol (Example compound 2, 7 mg, 0.024 mmol) was added, followed by the addition of adenosine deaminase (3 mg, ˜33 units). The resulting mixture was stirred at 40° C. and stirred for 4 days. The reaction mixture was concentrated under vacuum and the residue was purified by preparative-HPLC with the following conditions: Column: X-Bridge C18, 19*150 mm, 5 um; mobile phase, water with 10 mmol ammonium bicarbonate and acetonitrile (6% acetonitrile up to 30% in 5 min, hold 95% for 2 min, down to 40% in 2 min); Detector, uv 254&220 nm. The product-containing fractions were collected and lyophilized to give the title compound 2A as a solid. ^1H-NMR: (400 MHz, d6-DMSO, ppm): δ 11.58 (brs, 1H), 7.86 (s, 1H), 7.22 (d, J=1.6 Hz, 1H), 6.44 (t, J=5.8 Hz, 1H), 5.47 (d, J=4.8 Hz, 1H), 5.26-5.22 (m, 1H), 4.39-4.35 (m, 1H), 3.55-3.45 (m, 2H), 3.42 (s, 1H), 2.41-2.24 (m, 2H). ^19F-NMR: (376 MHz, d6-DMSO, ppm): δ −165.50 (s, 1F). LC-MS: (ES, m/z): 294.15 [M+H]^+.
(§3) Using the described procedures, conversion of compounds 4, 8 and 9 to 4A, 8A and 9A, respectively, was not detected (NA=substrate insensitive to adenosine deaminase).

[2] = system: HIV-1 (H9IIIB virus) replication in MT4-GFP cells; experiment: Viking Assay: antiviral potency in a multiple round HIV-1 infection assay; format: cell-based; details: inhibition of reproductive ratio R0 between ~48 h and ~72 h post-infection, read-out: Viking, IC50 (10% NHS)
Experimental: Assessing Antiviral Potency in a Multiple Round HIV-1 Infection Assay.
Cells were then washed and re-suspended in either RPMI 1640 containing 10% or 50% normal human serum at 1.6×10^5 cells/mL (10% or 50% NHS conditions) or in 100% normal human serum at 2×10^5 cells/mL (100% NHS conditions).
The increase in the number of green cells over ˜24 h period gives the reproductive ratio, R0, which is typically 5-15 and has been shown experimentally to be in logarithmic phase (data not shown). Inhibition of R0 is calculated for each well, and IC50s determined by non-linear 4-parameter curve fitting.

[3] = system: HIV-1 (H9IIIB virus) replication in MT4-GFP cells; experiment: Antiviral Persistence assay; details: for Fold shift IC50 72 h/24 h: ratio of IC50 72 h to IC50 24 h
Experimental: HIV-1 replication was monitored using MT4-gag-GFP clone D3 (hereafter designate MT4-GFP), which are MT-4 cells modified to harbor a GFP reporter gene, the expression of which is dependent on the HIV-1 expressed proteins tat and rev. Productive infection of an MT4-GFP cell with HIV-1 results in GFP expression approximately 24 h post-infection. MT4-GFP cells were maintained at 37° C./5% CO2/90% relative humidity in RPMI 1640 supplemented with 10% fetal bovine serum, 100 U/mL penicillin/streptomycin, and 400 μg/mL G418 to maintain the reporter gene. For 72 hour time point persistence assay (72 h plate) and 24 hour time point control assay (24 h plate), MT4-GFP cells were washed and re-suspended in RPMI 1640 containing 10% normal human serum at either 1.6×10^5 or 2.4×10^5 cells/mL (10% NHS). Compound plates were prepared by dispensing compounds dissolved in DMSO into wells of 384 well cell culture plates ([…]) using an ECHO acoustic dispenser. Each compound was tested in a 10 point serial 3-fold dilution (typical final concentrations: 4.2 μM-0.21 nM). Controls included no inhibitor (DMSO only) and a combination of three antiviral agents (efavirenz, indinavir, and an integrase strand transfer inhibitor at final concentrations of 4 μM each). Cells were added (50 μL/well) to compound plates and were incubated at 37° C./5% CO2/90% relative humidity for 24 hours. The cells were washed with 5×40 uL of RPMI 1640 supplemented with 10% NHS and 100 U/mL penicillin/streptomycin. 72 h plate was return back to 37° C. incubator for additional 48 hour incubation. 40 uL of the cells from each well of the 24 h plate or the 72 h plate (after 48 hour incubation post wash) were transferred to a poly-D-lysine coated plate. The cells were then infected with H9IIIB virus at an approximate multiplicity of infection of 0.1 in the same incubation conditions.
Infected cells were quantified at ˜24 h post-infection, by counting the number of green cells in each well using an Acumen eX3 scanner. IC50s for the compounds in Table 4 were determined by non-linear 4-parameter curve fitting.
The antiviral persistence assay is meant to assess for the persistence of antiviral activity upon removal of the nucleoside. […] The publication AIDS Research and Therapy, 2009, 6:5, highlights the value of antiviral persistence.

human ADA type 1 = target: T2, human ADA type 1 (Homo sapiens, UniProt P00813); experiment: Adenosine Deaminase (ADA) Half-Life; format: in vitro ADME; details: Tris-HCl buffer pH 7.5, 40° C., procedures as for compound 2 to 2A
T2 sequence (P00813 1-363): T1 sequence (P00813 1-363)
Experimental: as §1, §2, §3

MT4-GFP cells = experiment: CTG Assay: cytotoxicity in CellTiter-Glo Luminescent Cell Viability Assay; format: cell-based; details: 10% normal human serum, 48 h incubation, top concentration 8.4 μM
Experimental: Assessing Cytotoxicity in CellTiter-Glo Luminescent Cell Viability Assay (CTG).
Cells were then washed and resuspended in RPMI 1640 containing 10% normal human serum at a density of 0.8×10^5 cells/mL. […] Controls included DMSO. […] CTG reagent (Promega, G7573) was added to the cell plates after 48 h incubation according to the manufacturer's description. Luminescence signals were recorded on EnVision plate reader (PerkinElmer). LD50s were determined by non-linear 4-parameter curve fitting. The resulting data is shown in Table 3 with the marketed HIV nucleoside reverse transcriptase inhibitor AZT (azidothymidine, zidovudine) included as a control.

[4] = Human immunodeficiency virus 1, 10% normal human serum
[5] = Human immunodeficiency virus 1, 24 h, read-out: IC50 24 h (nM)
[6] = Human immunodeficiency virus 1, read-out: IC50 72 h (nM)

Molecule	half-life at 4.8 mM [1]	IC50 [2, 4]	IC50 [3, 5]	IC50 [3, 6]	Fold shift IC50 72 h/24 h [3]	conversion to the corresponding inosine product by adenosine deaminase (human ADA type 1)	IC50 ([2]; 10% normal human serum)	LD50 (MT4-GFP cells)	IC50 ([3]; read-out: IC50 24 h, 24 h plate: cells incubated with compound 24 hours, washed, then infected, 10% NHS)	IC50 ([3]; read-out: IC50 72 h, 72 h plate: compound 24 hours, washed, additional 48 hour incubation, then infected, 10% NHS)
Nc1ncnc2c1ncn2[C@H]1C[C@H](O)[C@@H](CO)O1 [Deoxy- adenosine, deoxyadenosine, reference compound]	< 0.167 h	–	–	–	–	–	–	–	–	–
C#C[C@]1(CO)O[C@@H](n2cnc3c(N)ncnc32)C[C@@H]1O [EDA, (2R,3S,5R)-5-(6-amino-9H-purin-9-yl)-2-ethynyl-2-(hydroxymethyl)tetrahydrofuran-3-ol, reference compound]	< 1 h	–	–	–	–	–	–	–	–	–
C#C[C@]1(CO)O[C@@H](n2ccc3c(N)ncnc32)C[C@@H]1O [Example 1, (2R,3S,5R)-5-(4-amino-7H-pyrrolo[2,3-d]pyrimidin-7-yl)-2-ethynyl-2-(hydroxymethyl)tetrahydrofuran-3-ol]	288 h	1.3 nM	0.8 nM	36 nM	45	–	–	–	–	–
C#C[C@]1(CO)O[C@@H](n2cc(F)c3c(N)ncnc32)C[C@@H]1O [Example 2, (2R,3S,5R)-5-(4-amino-5-fluoro-7H-pyrrolo[2,3-d]pyrimidin-7-yl)-2-ethynyl-2-(hydroxymethyl)tetrahydrofuran-3-ol]	16 h	1.6 nM	6.6 nM	193 nM	29	–	–	–	–	–
C#C[C@]1(CO)O[C@@H](n2ccc3c(N)nc(Cl)nc32)C[C@@H]1O [Example 4, (2R,3S,5R)-5-(4-amino-2-chloro-7H-pyrrolo[2,3-d]pyrimidin-7-yl)-2-ethynyl-2-(hydroxymethyl)tetrahydrofuran-3-ol]	–	4 nM	9.6 nM	360 nM	37.5	not detected	–	–	–	–
C#C[C@]1(CO)O[C@@H](n2ccc3c(N)nc(N)nc32)C[C@@H]1O [Example 8, (2R,3S,5R)-5-(2,4-diamino-7H-pyrrolo[2,3-d]pyrimidin-7-yl)-2-ethynyl-2-(hydroxymethyl)tetrahydrofuran-3-ol]	–	194 nM	840 nM	29000 nM	34.5	not detected	–	–	–	–
C#C[C@]1(CO)O[C@@H](n2ccc3c(N)nc(F)nc32)C[C@@H]1O [Example 9, (2R,3S,5R)-5-(4-amino-2-fluoro-7H-pyrrolo[2,3-d]pyrimidin-7-yl)-2-ethynyl-2-(hydroxymethyl)tetrahydrofuran-3-ol]	–	10.2 nM	37 nM	270 nM	7.3	not detected	–	–	–	–
C#C[C@]1(CO)O[C@@H](c2ccc3c(N)ncnn23)C[C@@H]1O [Example 11, (2R,3S,5R)-5-(4-aminopyrrolo[2,1-f][1,2,4]triazin-7-yl)-2-ethynyl-2-(hydroxymethyl)tetrahydrofuran-3-ol]	3 h	17.2 nM	12.4 nM	1950 nM	157	–	–	–	–	–
C#C[C@]1(CO)O[C@@H](c2cnc3c(N)ncnn23)C[C@@H]1O [Example 22, (2R,3S,5R)-5-(4-aminoimidazo[2,1-f][1,2,4]triazin-7-yl)-2-ethynyl-2-(hydroxymethyl)tetrahydrofuran-3-ol]	0.167 h	38 nM	38 nM	350 nM	9.2	–	–	–	–	–
C#C[C@]1(CO)O[C@@H](c2cnn3c(N)ncnc23)C[C@@H]1O [Example 23, (2R,3S,5R)-5-(4-aminopyrazolo[1,5-a][1,3,5]triazin-8-yl)-2-ethynyl-2-(hydroxymethyl)tetrahydrofuran-3-ol]	0.167 h	64 nM	64 nM	700 nM	10.9	–	–	–	–	–
(2R,3S,5R)-5-(4-aminopyrrolo[2,1-f][1,2,4]triazin-7-yl)-3-hydroxy-2-(hydroxymethyl)tetrahydrofuran-2-carbonitrile [Example 12]	–	–	–	–	–	–	735 nM	>8.4 µM	880 nM	25000 nM
